Patent US9655363B2, “Microbiocides” (Syngenta Participations AG, priority 2013, dated 2017)

Key:
[1] = test system: Blumeria Graminis f. sp. Tritici (Erysiphe Graminis f. sp. Tritici); assay: Blumeria graminis f. sp. tritici / wheat / leaf disc preventative (powdery mildew on wheat); format: in vivo; settings: foliar, wheat leaf disc cv. Kanzler, compared to untreated, 6-8 days after application, read-out: disease control
Protocol: Fungicidal Activity Against Blumeria Graminis f. sp. Tritici (Erysiphe Graminis f. sp. Tritici)/Wheat/Leaf Disc Preventative (Powdery Mildew on Wheat) Wheat leaf segments cv. Kanzler were placed on agar in a multiwell plate (24-well format) and sprayed with the formulated test compound diluted in water. The leaf disks were inoculated by shaking powdery mildew infected plants above the test plates 1 day after application. The inoculated leaf disks were incubated at 20° C. and 60% rh under a light regime of 24 h darkness followed by 12 h light/12 h darkness in a climate chamber and the activity of a compound was assessed as percent disease control compared to untreated when an appropriate level of disease damage appears on untreated check leaf segments (6-8 days after application).

[2] = test system: Puccinia Recondita f. sp. Tritici; assay: Puccinia recondita f. sp. tritici / wheat / leaf disc preventative (brown rust); format: in vivo; settings: foliar, wheat leaf disc cv. Kanzler, compared to untreated, 7-9 days after application, read-out: disease control
Protocol: Fungicidal Activity Against Puccinia Recondita f. sp. Tritici/Wheat/Leaf Disc Preventative (Brown Rust) Wheat leaf segments cv. Kanzler were placed on agar in multiwell plates (24-well format) and sprayed with the formulated test compound diluted in water. The leaf disks were inoculated with a spore suspension of the fungus 1 day after application. The inoculated leaf segments were incubated at 19° C. and 75% rh under a light regime of 12 h light/12 h darkness in a climate cabinet and the activity of a compound was assessed as percent disease control compared to untreated when an appropriate level of disease damage appears in untreated check leaf segments (7-9 days after application).

[3] = test system: Puccinia Recondita f. sp. Tritici; assay: Puccinia recondita f. sp. tritici / wheat / leaf disc curative (brown rust); format: in vivo; settings: foliar, 192 h, compared to untreated, 8 days after inoculation, read-out: disease control
Protocol: Fungicidal Activity Against Puccinia Recondita f. sp. Tritici/Wheat/Leaf Disc Curative (Brown Rust) Wheat leaf segments are placed on agar in multiwell plates (24-well format). The leaf disks are then inoculated with a spore suspension of the fungus. One day after inoculation the test solution is applied. After appropriate incubation the activity of a compound is assessed 8 dpi (days after inoculation) as curative fungicidal activity. Dose range: 200-22 ppm.

[4] = test system: Mycosphaerella Arachidis (Cercospora Arachidicola); assay: Mycosphaerella arachidis (Cercospora arachidicola) / liquid culture (early leaf spot); format: cell-based; settings: liquid culture (PDB), growth inhibition photometrically 4-5 days after application, read-out: disease control
Protocol: Fungicidal Activity Against Mycosphaerella Arachidis (Cercospora Arachidicola)/Liquid Culture (Early Leaf Spot) Conidia of the fungus from cryogenic storage were directly mixed into nutrient broth (PDB potato dextrose broth). After placing a (DMSO) solution of test compound into a microtiter plate (96-well format), the nutrient broth containing the fungal spores was added. The test plates were incubated at 24° C. and the inhibition of growth was determined photometrically 4-5 days after application.

[5] = test system: Mycosphaerella Graminicola (Septoria Tritici); assay: Mycosphaerella graminicola (Septoria tritici) / liquid culture (Septoria blotch); format: cell-based; settings: Zymoseptoria tritici, liquid culture (PDB), growth inhibition photometrically 4-5 days after application, read-out: disease control
Protocol: Fungicidal Activity Against Mycosphaerella Graminicola (Septoria Tritici)/Liquid Culture (Septoria Blotch) Conidia of the fungus from cryogenic storage were directly mixed into nutrient broth (PDB potato dextrose broth). After placing a (DMSO) solution of test compound into a microtiter plate (96-well format), the nutrient broth containing the fungal spores was added. The test plates were incubated at 24° C. and the inhibition of growth was determined photometrically 4-5 days after application.

[6] = test system: Thanatephorus Cucumeris (Rhizoctonia Solani); assay: Thanatephorus cucumeris (Rhizoctonia solani) / liquid culture (foot rot, damping-off); format: cell-based; settings: liquid culture (PDB), growth inhibition photometrically 3-4 days after application, read-out: disease control
Protocol: Fungicidal Activity Against Thanatephorus Cucumeris (Rhizoctonia Solani)/Liquid Culture (Foot Rot, Damping-Off) Mycelia fragments of a newly grown liquid culture of the fungus were directly mixed into nutrient broth (PDB potato dextrose broth). After placing a (DMSO) solution of the test compounds into a microtiter plate (96-well format), the nutrient broth containing the fungal material was added. The test plates were incubated at 24° C. and the inhibition of growth was determined photometrically 3-4 days after application. Compounds (from table T1) 1, 2, 4, 7, 8, 10, 11, 13, 14 and 17 at 200 ppm give at least 80% disease control in this test when compared to untreated control leaf disks under the same conditions, which show extensive disease development.

N#Cc1ccc(-c2ccc(C3(C(O)(Cn4cncn4)c4ccc(F)cc4)CC3)nc2)cc1 (stereo not drawn) [Compound 8, 4-[6-[1-[1-(4-fluorophenyl)-1-hydroxy-2-(1,2,4-triazol-1-yl)ethyl]cyclopropyl]-3-pyridyl]benzonitrile]
≥ 80%: pest or weed control at 200 ppm [1] | pest or weed control at 200 ppm [2] | pest or weed control at 200 ppm [3] | inhibition of growth at 200 ppm [4] | inhibition of growth at 200 ppm [5] | inhibition of growth at 200 ppm [6]

OC(Cn1cncn1)(c1ccc(F)cc1)C1(c2ccc(Cl)cn2)CC1 (stereo not drawn) [Compound 14, 1-[1-(5-chloro-2-pyridyl)cyclopropyl]-1-(4-fluorophenyl)-2-(1,2,4-triazol-1-yl)ethanol]
≥ 80%: pest or weed control at 200 ppm [1] | pest or weed control at 200 ppm [2] | pest or weed control at 200 ppm [3] | inhibition of growth at 200 ppm [4] | inhibition of growth at 200 ppm [5] | inhibition of growth at 200 ppm [6]

OC(Cn1cncn1)(c1ccc(F)cc1)C1(c2ccc(C3CC3)cn2)CC1 (stereo not drawn) [Compound 7, 1-[1-(5-cyclopropyl-2-pyridyl)cyclopropyl]-1-(4-fluorophenyl)-2-(1,2,4-triazol-1-yl)ethanol]
≥ 80%: pest or weed control at 200 ppm [1] | pest or weed control at 200 ppm [2] | pest or weed control at 200 ppm [3] | inhibition of growth at 200 ppm [4] | inhibition of growth at 200 ppm [5] | inhibition of growth at 200 ppm [6]
